The results in this text go back to ChEMBL document CHEMBL5316298, “Discovery of Amphiphilic Xanthohumol Derivatives as Membrane-Targeting Antimicrobials against Methicillin-Resistant Staphylococcus aureus” (J Med Chem, 2023).

Structures are written as SMILES. Converted amounts (≈) assume the structure as drawn. The source made the active and inactive calls. No cut-off for these calls is given here.

For data set [1], the system named is Staphylococcus aureus. The experiment in a line: Antibacterial activity against methicillin-resistant Staphylococcus aureus 3 infected in KM mouse assessed as reduction in abscesses on dorsal surface of skin at 5 mg/kg administered into skin infection site measured after 24 hrs. It is filed as functional, organism-based.
Data set [2] is described as follows: Toxicity in KM mouse infected with methicillin-resistant Staphylococcus aureus 3 assessed as histopathological abnormalities in spleen at 5 mg/kg administered into skin infection site measured after 24 hrs by H and E staining based analysis. It is filed as organism-based. Conditions: in vivo, topical_or_ocular.
Data set [3] is described as follows: Toxicity in KM mouse infected with methicillin-resistant Staphylococcus aureus 3 assessed as kidneys damage at 5 mg/kg administered into skin infection site measured after 24 hrs by H and E staining based analysis. It is filed as organism-based. The conditions noted are these: in vivo, topical_or_ocular.
The nature of data set [4]: Toxicity in KM mouse infected with methicillin-resistant Staphylococcus aureus 3 assessed as liver damage at 5 mg/kg administered into skin infection site measured after 24 hrs by H and E staining based analysis. The conditions noted are these: in vivo, topical_or_ocular. It is filed as organism-based.
A short description of data set [5]: Toxicity in KM mouse infected with methicillin-resistant Staphylococcus aureus 3 assessed as swelling of renal tubular epithelial cells with granular degeneration at 5 mg/kg administered into skin infection site measured after 24 hrs by H and E staining based analysis. Type of data set: organism-based. Conditions: in vivo, topical_or_ocular.
Data set [6] is described as follows: Toxicity in KM mouse infected with methicillin-resistant Staphylococcus aureus 3 assessed as spleen damage at 5 mg/kg administered into skin infection site measured after 24 hrs by H and E staining based analysis. It is filed as organism-based. The conditions noted are these: in vivo, topical_or_ocular.
Data set [7] in a line: Toxicity in KM mouse infected with methicillin-resistant Staphylococcus aureus 3 assessed as heart damage at 5 mg/kg administered into skin infection site measured after 24 hrs by H and E staining based analysis. Type of data set: organism-based. The conditions noted are these: in vivo, topical_or_ocular.
A short description of data set [8]: Toxicity in KM mouse infected with methicillin-resistant Staphylococcus aureus 3 assessed as lung damage at 5 mg/kg administered into skin infection site measured after 24 hrs by H and E staining based analysis. Type of data set: organism-based. Conditions: in vivo, topical_or_ocular.
Data set [9] is described as follows: Toxicity in KM mouse infected with methicillin-resistant Staphylococcus aureus 3 assessed as vacuolar degeneration in the kidneys at 5 mg/kg administered into skin infection site measured after 24 hrs by H and E staining based analysis. It is filed as organism-based. Conditions: in vivo, topical_or_ocular.
The nature of data set [10]: Toxicity in KM mouse infected with methicillin-resistant Staphylococcus aureus 3 assessed as histopathological abnormalities in heart at 5 mg/kg administered into skin infection site measured after 24 hrs by H and E staining based analysis. It is filed as organism-based. The conditions noted are these: in vivo, topical_or_ocular.
Data set [11] deals with Staphylococcus aureus. The experiment in a line: Antibacterial activity against methicillin-resistant Staphylococcus aureus 3 infected in KM mouse assessed as reduction in bacterial load at infection site by measuring colony forming units at 5 mg/kg administered into skin infection site measured after 24 hrs. Type of data set: functional.
Data set [12] has as its system Staphylococcus aureus. Kind of data set: Antibacterial activity against methicillin-resistant Staphylococcus aureus 3 infected in KM mouse assessed as reduction in abscesses inside the skin at 5 mg/kg administered into skin infection site measured after 24 hrs. Type of data set: functional, organism-based.
In data set [13] the test system is Staphylococcus aureus. Kind of data set: Antibacterial activity against methicillin-resistant Staphylococcus aureus 3 infected in KM mouse assessed as reduction in size of abscesses at 5 mg/kg administered into skin infection site measured after 24 hrs. Type of data set: functional, organism-based.
Data set [14] can be described thus: Toxicity in KM mouse infected with methicillin-resistant Staphylococcus aureus 3 assessed as multifocal enlargement of hepatocytes with cytoplasmic foamy swelling at 5 mg/kg administered into skin infection site measured after 24 hrs by H and E staining based analysis. Type of data set: organism-based. The conditions noted are these: in vivo, topical_or_ocular.

Data set [15] in a line: Toxicity in KM mouse infected with methicillin-resistant Staphylococcus aureus 3 assessed as histopathological abnormalities in lungs at 5 mg/kg administered into skin infection site measured after 24 hrs by H and E staining based analysis. It is filed as organism-based. Conditions: in vivo, topical_or_ocular.
Data set [16] deals with Staphylococcus aureus. The experiment in a line: Antibacterial activity against methicillin-resistant Staphylococcus aureus 3 infected in KM mouse assessed as reduction in bacterial load at infection site at 5 mg/kg administered into skin infection site measured after 24 hrs relative to control. Set-up: scale not given: the % may be the effect or the level left. Type of data set: functional.

Data set [17] relates to Staphylococcus aureus. Kind of data set: Antibacterial activity against methicillin-resistant Staphylococcus aureus 3 infected in KM mouse assessed as reduction in inflammatory cells in subcutaneous tissue at 5 mg/kg administered into skin infection site measured after 24 hrs by H and E staining based analysis. It is filed as functional, organism-based.
Data set [18] relates to Staphylococcus aureus. The experiment in a line: Antibacterial activity against methicillin-resistant Staphylococcus aureus clinical isolate 2 incubated for 16 to 18 hrs by CLSI-based microbroth dilution method. It is filed as functional. The conditions noted are these: time 16-18 hrs.
Data set [19] deals with Staphylococcus aureus. The experiment in a line: Antibacterial activity against methicillin-resistant Staphylococcus aureus clinical isolate 10 incubated for 16 to 18 hrs by CLSI-based microbroth dilution method. It is filed as functional. The conditions noted are these: time 16-18 hrs.
Data set [20] deals with Staphylococcus aureus. The experiment in a line: Antibacterial activity against methicillin-resistant Staphylococcus aureus clinical isolate 4 incubated for 16 to 18 hrs by CLSI-based microbroth dilution method. Type of data set: functional. The conditions noted are these: time 16-18 hrs.
A short description of data set [21]: Hemolytic activity in sheep erythrocytes incubated for 1 hr by absorbance based analysis. It is filed as toxicity, cell-based, Ovis aries, Erythrocyte.
Data set [22] concerns Staphylococcus aureus. The experiment in a line: Antibacterial activity against methicillin-resistant Staphylococcus aureus clinical isolate 6 incubated for 16 to 18 hrs by CLSI-based microbroth dilution method. Type of data set: functional. Conditions: time 16-18 hrs.
In data set [23] the test system is Staphylococcus aureus. Kind of data set: Antibacterial activity against Staphylococcus aureus ATCC 29213 incubated for 16 to 18 hrs by CLSI-based microbroth dilution method. Type of data set: functional. The conditions noted are these: time 16-18 hrs.
Data set [24] deals with Staphylococcus aureus. The experiment in a line: Antibacterial activity against methicillin-resistant Staphylococcus aureus clinical isolate 8 incubated for 16 to 18 hrs by CLSI-based microbroth dilution method. It is filed as functional. Conditions: time 16-18 hrs.
For data set [25], the system named is Staphylococcus aureus. The experiment in a line: Antibacterial activity against methicillin-resistant Staphylococcus aureus clinical isolate 9 incubated for 16 to 18 hrs by CLSI-based microbroth dilution method. Type of data set: functional. Conditions: time 16-18 hrs.
Data set [26] has as its system Staphylococcus aureus. The experiment in a line: Antibacterial activity against methicillin-resistant Staphylococcus aureus clinical isolate 7 incubated for 16 to 18 hrs by CLSI-based microbroth dilution method. The conditions noted are these: time 16-18 hrs. Type of data set: functional.
Data set [27] concerns Staphylococcus aureus. The experiment in a line: Antibacterial activity against methicillin-resistant Staphylococcus aureus clinical isolate 1 incubated for 16 to 18 hrs by CLSI-based microbroth dilution method. It is filed as functional. The conditions noted are these: time 16-18 hrs.
For data set [28], the system named is Staphylococcus aureus. The experiment in a line: Antibacterial activity against Staphylococcus aureus ATCC 29213 assessed as inhibition of bacterial growth by CLSI based microdilution broth assay. Type of data set: functional.
Data set [29] concerns Staphylococcus aureus. Kind of data set: Antibacterial activity against methicillin-resistant Staphylococcus aureus clinical isolate 3 incubated for 16 to 18 hrs by CLSI-based microbroth dilution method. Conditions: time 16-18 hrs. Type of data set: functional.
Data set [30] deals with Staphylococcus aureus. The experiment in a line: Antibacterial activity against Staphylococcus aureus D5 assessed as inhibition of bacterial growth by CLSI based microdilution broth assay. Type of data set: functional.
The subject of data set [31] is Staphylococcus aureus. Kind of data set: Antibacterial activity against methicillin-resistant Staphylococcus aureus clinical isolate 5 incubated for 16 to 18 hrs by CLSI-based microbroth dilution method. Conditions: time 16-18 hrs. It is filed as functional.
Data set [32] has as its system Staphylococcus aureus. Kind of data set: Antibacterial activity against Staphylococcus aureus A7 assessed as inhibition of bacterial growth by CLSI based microdilution broth assay. Type of data set: functional.

With `CN[C@H](CC(C)C)C(=O)N[C@H]1C(=O)N[C@@H](CC(N)=O)C(=O)N[C@H]2C(=O)N[C@H]3C(=O)N[C@H](C(=O)N[C@H](C(=O)O)c4cc(O)cc(O)c4-c4cc3ccc4O)[C@H](O)c3ccc(c(Cl)c3)Oc3cc2cc(c3O[C@@H]2O[C@H](CO)[C@@H](O)[C@H](O)[C@H]2O[C@H]2C[C@](C)(N)[C@H](O)[C@H](C)O2)Oc2ccc(cc2Cl)[C@H]1O` [VANCOMYCIN], the result in the data set on Staphylococcus aureus [1] and with Staphylococcus aureus [12] was inactive. The Activity result in data set [2], in data set [3], in [4], in data set [5], in data set [6] and in data set [7] was “Non-Toxic” in each case. Moreover, the Activity result in [8] was “Non-Toxic”; in data set [9], “Non-Toxic”; in [10], “Non-Toxic”; in the data set on Staphylococcus aureus [11], 2.2 log10CFU/g; in data set [14] it was “Non-Toxic”; in [15], “Non-Toxic”. Moreover, in the data set with Staphylococcus aureus [16], the Activity stood at 99.479%. Further, the outcome in the data set with Staphylococcus aureus [13] and in the data set on Staphylococcus aureus [17] was Active.
Consider `COc1cc(O)c(CC=C(C)C)c(O)c1C(=O)/C=C/c1ccc(O)cc1` [XANTHOHUMOL], for which the MIC was 8 µg/mL (≈ 22.6 µM) against Staphylococcus aureus [18]; 8 µg/mL (≈ 22.6 µM) against Staphylococcus aureus [19]; 4 µg/mL (≈ 11.3 µM) against Staphylococcus aureus [20]; 16 µg/mL (≈ 45.1 µM) in the data set with Staphylococcus aureus [22]; 16 µg/mL (≈ 45.1 µM) with Staphylococcus aureus [23]; 8 µg/mL (≈ 22.6 µM) against Staphylococcus aureus [24]. Besides, the MIC in the data set with Staphylococcus aureus [25] was found to be 8 µg/mL (≈ 22.6 µM); against Staphylococcus aureus [26] it was 8 µg/mL (≈ 22.6 µM); with Staphylococcus aureus [27], 8 µg/mL (≈ 22.6 µM); in the data set with Staphylococcus aureus [28], 15.6 µg/mL (≈ 44 µM); in the data set with Staphylococcus aureus [29] it was 8 µg/mL (≈ 22.6 µM); in the data set with Staphylococcus aureus [30], 15.6 µg/mL (≈ 44 µM). In addition, the MIC amounted to 8 µg/mL (≈ 22.6 µM) in the data set on Staphylococcus aureus [31] and 15.6 µg/mL (≈ 44 µM) with Staphylococcus aureus [32]. The compound further came in with an HC50 at 1 h in data set [21] of 196 µg/mL.
